# In the supplement of paper PMC10883282:
# ± gives the standard deviation of the averaged measurements.
# Experiments:
# Experiment in all cases: relative viability vs DMSO control (72 h) (fraction); higher = more viable cells
# SK-LMS-1 = system: SK-LMS-1
# In short: (§1)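 Plates held 72 h at 37 °C and 5% CO2 contained sarcoma cell lines seeded in 384-well format to reach 80–90% confluence, plus 2.5 µl of serially diluted compound added after 24 h. Source plate concentrations ran from 10 mM to 0.0002 mM, with 0.1% DMSO as vehicle and a 5 µM positive control. Percent growth from ATPLite readings, averaged over up to triplicate wells, gave relative viability. Values were rescaled with 1 as full and 0 as none.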
# SW1353 = system: SW1353
# In short: as §1
# SW684 = system: SW684
# In short: as §1
# SW872 = system: SW872
# In short: as §1
# SW982 = system: SW982
# In short: as §1
# SYO-1 = system: SYO-1
# In short: as §1
smiles,measurement,setting,value
Cn1cc(C2=C(c3cn(C4CCN(Cc5ccccn5)CC4)c4ccccc34)C(=O)NC2=O)c2ccccc21 [Enzastaurin],relative viability,SK-LMS-1; 0.00017 µM,1.08 ± 0.035
same,relative viability,SK-LMS-1; 0.00051 µM,1.07 ± 0.066
same,relative viability,SK-LMS-1; 0.00152 µM,1.07 ± 0.044
same,relative viability,SK-LMS-1; 0.00457 µM,1.04 ± 0.047
same,relative viability,SK-LMS-1; 0.01372 µM,1.047 ± 0.0023
same,relative viability,SK-LMS-1; 0.04115 µM,1.071 ± 0.0078
same,relative viability,SK-LMS-1; 0.1235 µM,1.05 ± 0.014
same,relative viability,SK-LMS-1; 0.3704 µM,1.06 ± 0.048
same,relative viability,SK-LMS-1; 1.111 µM,0.9757 ± 0.0072
same,relative viability,SK-LMS-1; 3.333 µM,0.841 ± 0.029
same,relative viability,SK-LMS-1; 10 µM,0.746 ± 0.023
same,relative viability,SW1353; 0.00017 µM,1.1 ± 0.045
same,relative viability,SW1353; 0.00051 µM,1.09 ± 0.028
same,relative viability,SW1353; 0.00152 µM,1.104 ± 0.0092
same,relative viability,SW1353; 0.00457 µM,1.1 ± 0.033
same,relative viability,SW1353; 0.01372 µM,1.08 ± 0.052
same,relative viability,SW1353; 0.04115 µM,1.09 ± 0.031
same,relative viability,SW1353; 0.1235 µM,1.07 ± 0.031
same,relative viability,SW1353; 0.3704 µM,1.04 ± 0.045
same,relative viability,SW1353; 1.111 µM,0.949 ± 0.057
same,relative viability,SW1353; 3.333 µM,0.857 ± 0.012
same,relative viability,SW1353; 10 µM,0.809 ± 0.056
same,relative viability,SW684; 0.00017 µM,1.17 ± 0.043
same,relative viability,SW684; 0.00051 µM,1.18 ± 0.04
same,relative viability,SW684; 0.00152 µM,1.22 ± 0.0084
same,relative viability,SW684; 0.00457 µM,1.18 ± 0.038
same,relative viability,SW684; 0.01372 µM,1.2 ± 0.039
same,relative viability,SW684; 0.04115 µM,1.17 ± 0.12
same,relative viability,SW684; 0.1235 µM,1.17 ± 0.025
same,relative viability,SW684; 0.3704 µM,1.18 ± 0.054
same,relative viability,SW684; 1.111 µM,1.11 ± 0.029
same,relative viability,SW684; 3.333 µM,0.956 ± 0.031
same,relative viability,SW684; 10 µM,0.944 ± 0.038
same,relative viability,SW872; 0.00017 µM,1.07 ± 0.044
same,relative viability,SW872; 0.00051 µM,1.09 ± 0.048
same,relative viability,SW872; 0.00152 µM,1.08 ± 0.051
same,relative viability,SW872; 0.00457 µM,1.06 ± 0.039
same,relative viability,SW872; 0.01372 µM,1.01 ± 0.0027
same,relative viability,SW872; 0.04115 µM,1.08 ± 0.022
same,relative viability,SW872; 0.1235 µM,1.04 ± 0.057
same,relative viability,SW872; 0.3704 µM,1.09 ± 0.028
same,relative viability,SW872; 1.111 µM,1.05 ± 0.043
same,relative viability,SW872; 3.333 µM,1.06 ± 0.026
same,relative viability,SW872; 10 µM,0.96 ± 0.056
same,relative viability,SW982; 0.00017 µM,1.06 ± 0.037
same,relative viability,SW982; 0.00051 µM,1.06 ± 0.014
same,relative viability,SW982; 0.00152 µM,1.08 ± 0.013
same,relative viability,SW982; 0.00457 µM,1.08 ± 0.025
same,relative viability,SW982; 0.01372 µM,1.08 ± 0.027
same,relative viability,SW982; 0.04115 µM,1.069 ± 0.01
same,relative viability,SW982; 0.1235 µM,1.05 ± 0.029
same,relative viability,SW982; 0.3704 µM,1.06 ± 0.0093
same,relative viability,SW982; 1.111 µM,1.012 ± 0.0074
same,relative viability,SW982; 3.333 µM,0.903 ± 0.031
same,relative viability,SW982; 10 µM,0.679 ± 0.054
same,relative viability,SYO-1; 0.00017 µM,1.04 ± 0.017
same,relative viability,SYO-1; 0.00051 µM,1.016 ± 0.0091
same,relative viability,SYO-1; 0.00152 µM,0.999 ± 0.044
same,relative viability,SYO-1; 0.00457 µM,0.9983 ± 0.0017
same,relative viability,SYO-1; 0.01372 µM,0.971 ± 0.025
same,relative viability,SYO-1; 0.04115 µM,0.989 ± 0.022
same,relative viability,SYO-1; 0.1235 µM,0.959 ± 0.04
same,relative viability,SYO-1; 0.3704 µM,0.983 ± 0.046
same,relative viability,SYO-1; 1.111 µM,1.01 ± 0.021
same,relative viability,SYO-1; 3.333 µM,0.96 ± 0.026
same,relative viability,SYO-1; 10 µM,0.929 ± 0.025
